Results published in patent US20040138291A1, “Treatment of sexual dysfunction” (priority 2002, published 2004).

Legend:
[1] = system: ovariectomized (OVX) Wistar rats; assay: APO-induced responses in ovariectomized (OVX) rats; assay type: in vivo, rat
Description: A modification of a previous protocol using APO (80 ug/kg in 100 ug/ml ascorbic acid in water, s.c.) was used^(17). […] Rats were placed in hanging cages with bottoms constructed of Plexiglas®, in a dark, quiet room where they were allowed to acclimate for 10 minutes before the testing period. Following APO administration, the number of genital responses and associated yawning responses were recorded for a 30 minute period via a video monitoring system in an adjacent room.
APO-induced responses were determined in ovariectomized (OVX)^(22) rats to determine the effect of reduced levels of endogenous hormones. In brief, animals were anaesthetized with isoflurane gas delivered via a Bain rebreathing system. A small midline dorsal skin incision was made approximately half-way between the middle of the back and the base of the tail. Both ovaries were removed by ligating and severing the junction between the fallopian tube and uterine hom. Post-operative analgesia (buprenorphine, Buprenex™, 0.05 mg/kg) and antibiotics (0.1 ml/100 g body wt., Tribrissen™ 24%, Schering Canada Inc.) were administered daily for 5 days. Animals were given at least one week to recover before the onset of experimentation.

[2] = system: male spontaneously hypertensive rats (SHR); assay: APO-induced penile erectile response in aging SHR with anti-hypertensive and testosterone treatments; assay type: in vivo, rat; conditions: for number of erections relative to pre-treatment: summary of Example 3; for increase in number of erections two weeks off treatment: third treatment at 68 weeks, previously untreated rats, low salt diet, 30 mg/kg per day
Description: Animals: 30-week-old male spontaneously hypertensive rats (Charles River Laboratories, Montreal, Quebec, Canada) were housed individually at a temperature of 22-24° C. with a 12-hour light/dark cycle. They were provided with free access to regular rodent chow (0.4% Na^+) and tap water. All procedures were performed in accordance with the guidelines of the Canadian Council on Animal Care.
Anti-hypertensive Treatments. Rats were randomly divided into three groups. The control animals received only tap water. One treatment group received the ACE inhibitor enalapril maleate (30 mg/kg per day), and the other received the vasodilator hydralazine (45 mg/kg per day) (enalapril and hydralazine supplied by Sigma Chemical Co., St. Louis, Mo.) administered orally through their drinking water for 2 weeks. Aspartame (100 mg/1) was added to the hydralazine solution to improve the taste. Drug concentrations were calculated based on previously established drinking patterns^(24). Several times throughout the 2-week treatment period, the drug concentrations in the drinking water were adjusted to account for fluctuations in animal weight or fluid intake. Erectile response was measured in all groups with the administration of apomorphine (APO). APO-testing was performed three times before treatment and twice between days 7-14 of treatment.
A second two-week anti-hypertensive treatment was performed at 49 weeks of age. Rather than trying to prevent erectile dysfunction, this treatment attempted to restore erectile function. The same drugs and procedures were used as outlined above. APO-testing was performed twice between days 7-14 of treatment and twice off treatment.
Rats were randomized into four new treatment groups. The previously untreated rats received enalapril (30 mg/kg per day) or losartan (30 mg/kg per day) in their drinking water and were fed a low sodium diet (0.04% Na^+). After 6 days of treatment, a daily 4-hour access to salt containing regular chow (0.4% Na^+) was permitted to allow for a depressor response of 50% of the pre-treatment levels^(25). The treated rats received enalapril (30 mg/kg per day) in their drinking water and a low sodium diet (0.04% Na^+) or a triple therapy treatment^(24) combining hydralazine (45 mg/kg per day), a calcium channel blocker, nifedipine (200 mg per day) and a diuretic, hydrochlorothiazide (100 mg/l) (all drugs supplied by Sigma Chemical Co., St. Louis, Mo.). Hydralazine and hydrochlorothiazide were administered in the drinking water and nifedipine was mixed into ground regular rodent chow during the 12 h dark cycle. Aspartame (100 mg/l) was added to the hydralazine solution to improve the taste. APO-testing was performed twice between days 7-14 of treatment and twice off treatment.
Testosterone was prepared from a stock solution of testosterone propionate (Taro Pharmaceuticals, Bramalea, Ontario) diluted in peanut oil. Each rat received a single dose of testosterone (480 μg/kg) administered via subcutaneous injection in the neck. Testosterone was administered 36 hours prior to APO-testing.
Assessment of Erectile Response. Erectile response was assessed using the well-established bio-assay rat model developed by Heaton et al.^(17). The rats were placed in separate, wire hanging-wall cages with clear Plexiglas bottoms in a dark, quiet room and allowed to acclimate for 20 minutes. Each rat received apomorphine (80 μg/kg) in saline ([…] apomorphine plus 100 μg/ml ascorbic acid) via subcutaneous injection (1 ml/kg) in the loose skin of the neck or back. Erections and yawns were counted at 5-minute intervals over a 30-minute period via videomonitoring in an adjacent room.

[3] = system: aged (18 months) female Wistar rats; assay: Recovery of APO-induced GVA response in aged female rats with short-term anti-hypertensive treatment; assay type: in vivo, rat
Description: Aged (18 months) and control (3-4 months) female Wistar rats were assessed for APO-induced GVA response as described above (Example 1). Aged females were then treated with enalapril (30 mg kg^−1day^−1, orally)+low salt diet for 2 weeks. Prior to, during, and after treatment, apomorphine (80 ug kg^−1, s.c.) was used to elicit GVA responses. The frequency of GVA responses per rat for a 30-minute period was determined as described above (Example 1).

female Wistar rats = assay: APO-induced genital vasocongestive arousal (GVA) response bio-assay, intact rats; conditions: for average number of GVA responses: APO 80 ug/kg s.c.; for average number of GVA responses / yawning responses: 30 minutes; for yawning responses: intact animals
[4] = distribution over the 30-minute period

## CN1CCc2cccc3c2[C@H]1Cc1ccc(O)c(O)c1-3 [APO, apomorphine]
[1]; 8 OVX Wistar rats, 30 minute period
  reduction of GVA responses in OVX rats relative to intact animals: about 80%
[1]; APO administration
  non-GVA responses, OVX vs intact animals: no significant difference
[2]; SHR 30-68 weeks, APO 80 μg/kg s.c.
  APO-induced erectile responses with age: progressive loss of response
[3]; APO 80 ug/kg s.c., 30 minute period
  average GVA responses in control (3-4 months) female rats: about 2
[3]; pre-treatment
  APO-induced GVA response rate in aged females: 40%
[3]; prior to anti-hypertensive treatment, APO 80 ug/kg s.c.
  GVA responses in aged female rats relative to controls: significantly fewer
Female Wistar rats; 30-minute period
  share of total GVA responses occurring within the first 20 minutes: 80%
Female Wistar rats; APO 40, 80 & 120 ug/kg, result for 80 ug/kg, preliminary studies
  genital grooming responses, dose-response assessment: greatest number of genital grooming responses
Female Wistar rats; any stage of the estrous cycle
  non-GVA responses, APO vs control tested animals: no significant difference
Female Wistar rats; diestrus 1
  average number of GVA responses: 1.13±1.36
  yawning responses: 2±2.50
Female Wistar rats; diestrus II
  average number of GVA responses: 0.88±0.85
Female Wistar rats; [4]
  time of peak of APO-induced GVA responses: 5 to 10 min
  time of peak of APO-induced yawning responses: 15 to 20 min
Female Wistar rats; estrus
  average number of GVA responses: 1.75±1.67
Female Wistar rats; metestrus
  average number of GVA responses: 1.5±1.20
  yawning responses: 3.63±3.96
Female Wistar rats; proestrus, 8 rats
  average number of GVA responses: 1.5±1.06

## CCC(=O)O[C@H]1CC[C@H]2[C@@H]3CCC4=CC(=O)CC[C@]4(C)[C@H]3CC[C@]12C [Testosterone, testosterone propionate]
[2]; 66 weeks of age
  effect of testosterone on erectile response: did not increase erectile response
  effect of testosterone on number of yawns: significantly increase
[2]; control rats and rats treated with hydralazine, 47 and 66 weeks of age, 480 μg/kg s.c.
  effect of testosterone supplementation on number of erections: did not significantly affect
[2]; enalapril treated rats, after the first testosterone treatment
  increase in number of erections with testosterone: 2.5 fold

## CCOC(=O)[C@H](CCc1ccccc1)N[C@@H](C)C(=O)N1CCC[C@H]1C(=O)O [enalapril]
[2]; second treatment at 49 weeks
  average number of erections two weeks after treatment was withdrawn: significantly higher level than the pre treatment values
[2]; second treatment at 49 weeks, not significant
  increase in average number of erections on treatment vs pre treatment: > 2 fold
[2]
  number of erections relative to pre-treatment: significant increases
  increase in number of erections two weeks off treatment: 2 fold
[3]; 1 & 3 week off-treatment, p<0.05
  frequency of APO-induced GVA responses off treatment relative to the treatment period: persistent and significant increase
[3]; compared to pre-treatment levels
  persistence of increased sexual responsiveness to APO after cessation of treatment: persisted for at least ten weeks
[3]; during anti-hypertensive treatment
  overall APO-induced GVA response rate in aged females: 56%
[3]; enalapril 30 mg/kg/day orally + low salt diet, 2 weeks, p=0.065
  APO-induced GVA responses during anti-hypertensive treatment: trend of increasing
[3]; off-treatment
  overall APO-induced GVA response rate in aged females: 93%
[3]; persisted after cessation of the treatment, FIG. 2
  partial behavioural responses: increase in the number of partial behavioural responses
[3]; summary of pilot study
  APO-induced GVA response of aged rats after two weeks of daily treatment: increased to levels of young rats

## CCCCc1nc(Cl)c(CO)n1Cc1ccc(-c2ccccc2-c2nn[nH]n2)cc1 [losartan]
[2]
  number of erections relative to pre-treatment: significant increases
  increase in number of erections two weeks off treatment: 2 fold
